Laboratory results taken from patent US9045389B2, “Biphenyl derivatives useful as glucagon receptor antagonists” (Janssen Pharmaceutica NV, priority 2011, dated 2015).
pKi: −log10 of the molar value.

target: human GCGR (Homo sapiens (Human), UniProt P47871); experiment: Cellular functional assay, cAMP readout: glucagon stimulated cAMP in HEK293 cells expressing human GCGR (LANCE TR-FRET); format: cell-based
Procedure: IC50 Values in Cellular Functional Assays: cAMP Readout
Full-length human GCGR (Accession Number: NM000160) subcloned into pcDNA3.1 was stably transfected into HEK293 cells (hGluc-1 HEK) and maintained under G418 selection (500 μg/mL). Cell cultures were maintained in DMEM/F12 media supplemented with 10% FBS and 1% GlutaMax. Glucagon stimulated cAMP was quantified using LANCE technology as per manufacturer instructions. On the day of the experiment, spent media was removed and cells were washed with Hank's Buffered Saline solution (HBSS) and cells were harvested with non-enzymatic cell dissociation solution, then washed once with HBSS. Cells were re-suspended in stimulation buffer at a concentration of 0.83×10^6 cells/ml and cAMP detection antibody was added. 6 μl/well of this solution was then dispensed in a 384 well plate (cell density 5000 cells/well). Test compound was serially diluted in DMSO and 50 nl were dispensed on top of the cell solution and allowed to incubate for 30 minutes. 6 μl of a 2× glucagon solution (final concentration in assay 100 pM) was then added and the reaction was terminated after 5 minutes with the addition of detection mix. The resulting mixture was incubated, protected from light for 1.5 h. cAMP levels were quantified by TR-FRET in an EnVision instrument against a known standard. IC50's were generated by using a non-linear regression macro driven in Excel and converted to Ki values.

Sequence of human GCGR (P47871 26-477): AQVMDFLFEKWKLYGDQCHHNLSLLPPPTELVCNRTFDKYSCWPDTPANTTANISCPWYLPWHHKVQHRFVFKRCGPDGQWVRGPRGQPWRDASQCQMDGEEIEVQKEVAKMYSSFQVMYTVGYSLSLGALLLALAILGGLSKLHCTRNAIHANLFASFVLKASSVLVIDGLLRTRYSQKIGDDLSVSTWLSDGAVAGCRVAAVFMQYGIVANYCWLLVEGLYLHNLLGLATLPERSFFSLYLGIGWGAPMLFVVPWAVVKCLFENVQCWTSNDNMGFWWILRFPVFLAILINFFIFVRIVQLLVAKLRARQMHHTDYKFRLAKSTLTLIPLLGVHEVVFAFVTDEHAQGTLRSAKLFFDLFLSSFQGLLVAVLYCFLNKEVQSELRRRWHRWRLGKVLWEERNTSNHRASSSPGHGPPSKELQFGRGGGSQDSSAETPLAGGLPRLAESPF

**Q.** `Cc1cc(Cl)ccc1-c1ccc(NCc2ccc(C(F)(F)F)cc2-c2ccc(C(=O)NCCC(=O)O)cc2)cc1Cl` [Compound 1, 3-(2′-(((2,4′-dichloro-2′-methyl-[1,1′-biphenyl]-4-yl)amino)methyl)-5′-(trifluoromethyl)-[1,1′-biphenyl]-4-ylcarboxamido)propanoic acid] was tested. Which pKi did it give?
**A.** 7.24

**Q.** How did the pKi turn out when `O=C(O)CCNC(=O)c1ccc(-c2cc(C(F)(F)F)ccc2CNc2ccc(-c3ccc(C(F)(F)F)cc3Cl)c(Cl)c2)cc1` [Compound 3, 3-(2′-(((2,2′-dichloro-4′-(trifluoromethyl)-[1,1′-biphenyl]-4-yl)amino)methyl)-5′-(trifluoromethyl)-[1,1′-biphenyl]-4-ylcarboxamido)propanoic acid] was run?
**A.** 7.17

**Q.** How did the pKi turn out when `Cc1cc(C(F)(F)F)ccc1-c1ccc(NCc2ccc(C(F)(F)F)cc2-c2ccc(C(=O)NCCC(=O)O)cc2)cc1Cl` [Compound 2, 3-(2′-(((2-chloro-2′-methyl-4′-(trifluoromethyl)-[1,1′-biphenyl]-4-yl)amino)methyl)-5′-(trifluoromethyl)-[1,1′-biphenyl]-4-ylcarboxamido)propanoic acid] was run?
**A.** 7.38

**Q.** `COc1cc(C(F)(F)F)cc(-c2ccc(C(=O)NCCC(=O)O)cc2)c1CNc1ccc(-c2ccc(Cl)cc2)c(Cl)c1` [Compound 15, 3-(2′-(((2,4′-dichloro-[1,1′-biphenyl]-4-yl)amino)methyl)-3′-methoxy-5′-(trifluoromethyl)-[1,1′-biphenyl]-4-ylcarboxamido)propanoic acid] was tested. Which pKi did it give?
**A.** 7.24

**Q.** `O=C(O)CCNC(=O)c1ccc(-c2cc(C(F)(F)F)ccc2CNc2ccc(-c3ccc(Cl)cc3Cl)cc2)cc1` [Compound 4, 3-(2′-(((2′,4′-dichloro-[1,1′-biphenyl]-4-yl)amino)methyl)-5′-(trifluoromethyl)-[1,1′-biphenyl]-4-ylcarboxamido)propanoic acid] was tested. Which pKi did it give?
**A.** 6.82

**Q.** `Cc1cc(Cl)ccc1-c1ccc(NCc2ccc(C(F)(F)F)cc2-c2ccc(C(=O)NCCC(=O)O)cc2C)cc1Cl` [Compound 5, 3-(2′-(((2,4′-dichloro-2′-methyl-[1,1′-biphenyl]-4-yl)amino)methyl)-2-methyl-5′-(trifluoromethyl)-[1,1′-biphenyl]-4-ylcarboxamido)propanoic acid] was tested. Which pKi did it give?
**A.** 7.05

**Q.** With `Cc1cc(C(F)(F)F)ccc1-c1ccc(NCc2c(-c3ccc(C(=O)NCCC(=O)O)cc3)cc(C(F)(F)F)cc2C(C)C)cc1Cl` [Compound 17, 3-(2′-(((2-chloro-2′-methyl-4′-(trifluoromethyl)-[1,1′-biphenyl]-4-yl)amino)methyl)-3′-isopropyl-5′-(trifluoromethyl)-[1,1′-biphenyl]-4-ylcarboxamido)propanoic acid] as the molecule, how does the pKi read?
**A.** 7.52

**Q.** `Cc1cc(C(F)(F)F)ccc1-c1ccc(NCc2ccc(C(F)(F)F)cc2-c2ccc(C(=O)NCCC(=O)O)cc2C)cc1Cl` [Compound 6, 3-(2′-(((2-chloro-2′-methyl-4′-(trifluoromethyl)-[1,1′-biphenyl]-4-yl)amino)methyl)-2-methyl-5′-(trifluoromethyl)-[1,1′-biphenyl]-4-ylcarboxamido)propanoic acid] was tested. Which pKi did it give?
**A.** 7.15

**Q.** With `COc1cc(C(F)(F)F)cc(-c2ccc(C(=O)NCCC(=O)O)cc2)c1CNc1ccc(-c2ccc(C(F)(F)F)cc2Cl)cc1` [Compound 16, 3-(2′-(((2′-chloro-4′-(trifluoromethyl)-[1,1′-biphenyl]-4-yl)amino)methyl)-3′-methoxy-5′-(trifluoromethyl)-[1,1′-biphenyl]-4-ylcarboxamido)propanoic acid] as the molecule, how does the pKi read?
**A.** 7.33
